Test system: C57/BL6J mice
Assay: In vivo plasma GLP-1 level-increasing action: plasma active GLP-1 level (ELISA) after oral administration
Settings: 10 mg/kg oral; for Significant difference (p < 0.05) vs control group, plasma active GLP-1 level: 30 minutes, Student's t-test; for Plasma active GLP-1 level (relative value to control group as 100), average value: blood 30 minutes after, 0.5% CMC-Na group = 100
Description: Seven-week-old male C57/BL6J mice were purchased from CLEA Japan, Inc. for use, and they were subjected to an experiment after 1 week of a habituation period.
After the habituation period, the mice were subjected to 5.5 hours of food deprivation and 2 hours of water deprivation. Thereafter, a cyclic dipeptide dissolved or suspended in a 0.5% CMC-Na aqueous solution in 10 mg/kg was orally administered to each mouse forcibly. After 30 minutes, the blood was collected from the abdominal vena cava under anesthesia, and 1 μL of heparin sodium and 1 μL of 10 mM Sitagliptin phosphate were added to each collected blood, which was then subjected to centrifugation at 8000 rpm for 10 minutes to recover the plasma, and the plasma active GLP-1 level was measured by using the ELISA kit. In the analysis, the active GLP-1 level for a group administered with 0.5% CMC-Na aqueous solution was defined as 100, and relative values thereto were used.

Compound: O=C(O)CC[C@@H]1NC(=O)[C@H](Cc2ccc(O)cc2)NC1=O [compound 87, Cyclo(Glu-Tyr)]
- Significant difference (p < 0.05) vs control group, plasma active GLP-1 level (Table 12, Experiment 7): No
- Plasma active GLP-1 level (relative value to control group as 100), average value (Table 12, Experiment 7): 141

Compound: CC(C)C1NC(=O)C(CCC(=O)O)NC1=O (stereo not shown) [compound 118, Cyclo(Val-Glu)]
- Significant difference (p < 0.05) vs control group, plasma active GLP-1 level (Table 13, Experiment 8): No
- Plasma active GLP-1 level (relative value to control group as 100), average value (Table 13, Experiment 8): 112

Compound: CCC(C)C1NC(=O)C(Cc2c[nH]c3ccccc23)NC1=O (stereo not shown) [compound 62, Cyclo(Trp-Ile)]
- Significant difference (p < 0.05) vs control group, plasma active GLP-1 level (Table 8, Experiment 3): No
- Plasma active GLP-1 level (relative value to control group as 100), average value (Table 8, Experiment 3): 178

Compound: CSCCC1NC(=O)C(C)NC1=O (stereo not shown) [compound 125, cyclo-methionyl-alanine]
- Significant difference (p < 0.05) vs control group, plasma active GLP-1 level (Table 14, Experiment 9): Yes

Compound: CCC(C)C1NC(=O)C(C)NC1=O (stereo not shown) [compound 123, Cyclo(Ile-Ala)]
- Significant difference (p < 0.05) vs control group, plasma active GLP-1 level (Table 14, Experiment 9): No
- Plasma active GLP-1 level (relative value to control group as 100), average value (Table 14, Experiment 9): 120

Compound: CC(C)CC1NC(=O)C(CO)NC1=O (stereo not shown) [compound 151, cyclo-seryl-leucine]
- Significant difference (p < 0.05) vs control group, plasma active GLP-1 level (Table 15, Experiment 10): Yes
- Plasma active GLP-1 level (relative value to control group as 100), average value (Table 15, Experiment 10): 259

Compound: CC1NC(=O)C(Cc2c[nH]c3ccccc23)NC1=O (stereo not shown) [compound 76, Cyclo(Trp-Ala)]
- Significant difference (p < 0.05) vs control group, plasma active GLP-1 level (Table 11, Experiment 6): No
- Plasma active GLP-1 level (relative value to control group as 100), average value (Table 11, Experiment 6): 110

Compound: CC[C@H](C)[C@@H]1NC(=O)[C@H](CC(=O)O)NC1=O [compound 162, cyclo-isoleucyl-aspartic acid]
- Significant difference (p < 0.05) vs control group, plasma active GLP-1 level (Table 15, Experiment 10): Yes
- Plasma active GLP-1 level (relative value to control group as 100), average value (Table 15, Experiment 10): 259

Compound: CC(C)C[C@@H]1NC(=O)[C@H](Cc2ccccc2)NC1=O [compound 16, Cyclo(Leu-Phe)]
- Significant difference (p < 0.05) vs control group, plasma active GLP-1 level (Table 9, Experiment 4): No
- Plasma active GLP-1 level (relative value to control group as 100), average value (Table 9, Experiment 4): 105

Compound: O=C1NC(Cc2ccccc2)C(=O)N2CCCC12 (stereo not shown) [compound 13, Cyclo(Phe-Pro)]
- Significant difference (p < 0.05) vs control group, plasma active GLP-1 level (Table 9, Experiment 4): No
- Plasma active GLP-1 level (relative value to control group as 100), average value (Table 9, Experiment 4): 120

Compound: O=C1N[C@@H](Cc2c[nH]c3ccccc23)C(=O)N[C@H]1Cc1c[nH]c2ccccc12 [compound 75, cyclo-tryptophanyl-tryptophan]
- Significant difference (p < 0.05) vs control group, plasma active GLP-1 level (Table 8, Experiment 3): Yes
- Plasma active GLP-1 level (relative value to control group as 100), average value (Table 8, Experiment 3): 229

Compound: CSCC[C@@H]1NC(=O)[C@H](CC(C)C)NC1=O [compound 72, Cyclo(Met-Leu)]
- Significant difference (p < 0.05) vs control group, plasma active GLP-1 level (Table 11, Experiment 6): No
- Plasma active GLP-1 level (relative value to control group as 100), average value (Table 11, Experiment 6): 90

Compound: O=C1CNC(=O)C(Cc2ccc(O)cc2)N1 (stereo not shown) [compound 42, Cyclo(Tyr-Gly)]
- Significant difference (p < 0.05) vs control group, plasma active GLP-1 level (Table 10, Experiment 5): No
- Plasma active GLP-1 level (relative value to control group as 100), average value (Table 10, Experiment 5): 97

Compound: O=C1CNC(=O)[C@H](Cc2ccccc2)N1 [compound 8, Cyclo(Gly-Phe)]
- Significant difference (p < 0.05) vs control group, plasma active GLP-1 level (Table 9, Experiment 4): No
- Plasma active GLP-1 level (relative value to control group as 100), average value (Table 9, Experiment 4): 85

Compound: N=C(N)NCCCC1NC(=O)C(Cc2ccc(O)cc2)NC1=O (stereo not shown) [compound 94, Cyclo(Arg-Tyr)]
- Significant difference (p < 0.05) vs control group, plasma active GLP-1 level (Table 12, Experiment 7): No
- Plasma active GLP-1 level (relative value to control group as 100), average value (Table 12, Experiment 7): 222

Compound: O=C1N[C@@H](Cc2cnc[nH]2)C(=O)N[C@H]1Cc1ccccc1 [compound 38, cyclo-histidyl-phenylalanine]
- Significant difference (p < 0.05) vs control group, plasma active GLP-1 level (Table 8, Experiment 3): Yes
- Plasma active GLP-1 level (relative value to control group as 100), average value (Table 8, Experiment 3): 264

Compound: O=C1N[C@@H](Cc2ccc(O)cc2)C(=O)N[C@H]1CO [compound 29, Cyclo(Ser-Tyr)]
- Significant difference (p < 0.05) vs control group, plasma active GLP-1 level (Table 9, Experiment 4): No
- Plasma active GLP-1 level (relative value to control group as 100), average value (Table 9, Experiment 4): 95

Compound: CC[C@H](C)[C@@H]1NC(=O)[C@H]([C@H](C)O)NC1=O [compound 161, cyclo-isoleucyl-threonine]
- Significant difference (p < 0.05) vs control group, plasma active GLP-1 level (Table 15, Experiment 10): Yes
- Plasma active GLP-1 level (relative value to control group as 100), average value (Table 15, Experiment 10): 282

Compound: CCC(C)C1NC(=O)C(CCSC)NC1=O (stereo not shown) [compound 119, Cyclo(Met-Ile)]
- Significant difference (p < 0.05) vs control group, plasma active GLP-1 level (Table 13, Experiment 8): No
- Plasma active GLP-1 level (relative value to control group as 100), average value (Table 13, Experiment 8): 106

Compound: O=C1N[C@@H](Cc2c[nH]c3ccccc23)C(=O)N[C@H]1Cc1ccc(O)cc1 [compound 22, cyclo-tryptophanyl-tyrosine]
- Significant difference (p < 0.05) vs control group, plasma active GLP-1 level (Table 8, Experiment 3): Yes
- Plasma active GLP-1 level (relative value to control group as 100), average value (Table 8, Experiment 3): 203

Compound: CC(C)[C@@H]1NC(=O)CNC1=O [compound 155, Cyclo(Val-Gly)]
- Significant difference (p < 0.05) vs control group, plasma active GLP-1 level (Table 15, Experiment 10): No
- Plasma active GLP-1 level (relative value to control group as 100), average value (Table 15, Experiment 10): 55

Compound: CC(C)C1NC(=O)C(CC(=O)O)NC1=O (stereo not shown) [compound 140, cyclo-valyl-aspartic acid]
- Significant difference (p < 0.05) vs control group, plasma active GLP-1 level (Table 14, Experiment 9): Yes
- Plasma active GLP-1 level (relative value to control group as 100), average value (Table 14, Experiment 9): 120

Compound: CC(O)C1NC(=O)C(Cc2ccccc2)NC1=O (stereo not shown) [compound 56, Cyclo(Thr-Phe)]
- Significant difference (p < 0.05) vs control group, plasma active GLP-1 level (Table 10, Experiment 5): No
- Plasma active GLP-1 level (relative value to control group as 100), average value (Table 10, Experiment 5): 87

Compound: O=C(O)C[C@@H]1NC(=O)[C@H](Cc2ccccc2)NC1=O [compound 33, Cyclo(Asp-Phe)]
- Significant difference (p < 0.05) vs control group, plasma active GLP-1 level (Table 9, Experiment 4): No
- Plasma active GLP-1 level (relative value to control group as 100), average value (Table 9, Experiment 4): 90

Compound: CC(C)C1NC(=O)C(C(C)O)NC1=O (stereo not shown) [compound 139, cyclo-valyl-threonine]
- Significant difference (p < 0.05) vs control group, plasma active GLP-1 level (Table 14, Experiment 9): Yes
- Plasma active GLP-1 level (relative value to control group as 100), average value (Table 14, Experiment 9): 120

Compound: O=C1N[C@@H](Cc2ccc(O)cc2)C(=O)N2CCC[C@@H]12 [compound 30, Cyclo(Pro-Tyr)]
- Significant difference (p < 0.05) vs control group, plasma active GLP-1 level (Table 9, Experiment 4): No
- Plasma active GLP-1 level (relative value to control group as 100), average value (Table 9, Experiment 4): 95

Compound: CC(C)CC1NC(=O)C(CCC(=O)O)NC1=O (stereo not shown) [compound 145, cyclo-glutamyl-leucine]
- Significant difference (p < 0.05) vs control group, plasma active GLP-1 level (Table 15, Experiment 10): Yes
- Plasma active GLP-1 level (relative value to control group as 100), average value (Table 15, Experiment 10): 236

Compound: O=C1NC(Cc2c[nH]c3ccccc23)C(=O)NC1Cc1ccccc1 (stereo not shown) [compound 28, cyclo-phenylalanyl-tryptophan]
- Significant difference (p < 0.05) vs control group, plasma active GLP-1 level (Table 8, Experiment 3): Yes
- Plasma active GLP-1 level (relative value to control group as 100), average value (Table 8, Experiment 3): 255

Compound: O=C1CNC(=O)C(Cc2c[nH]c3ccccc23)N1 (stereo not shown) [compound 26, cyclo-glycyl-tryptophan]
- Significant difference (p < 0.05) vs control group, plasma active GLP-1 level (Table 8, Experiment 3): Yes
- Plasma active GLP-1 level (relative value to control group as 100), average value (Table 8, Experiment 3): 264

Compound: CC(C)CC1NC(=O)C(CC(N)=O)NC1=O (stereo not shown) [compound 106, Cyclo(Asn-Leu)]
- Significant difference (p < 0.05) vs control group, plasma active GLP-1 level (Table 13, Experiment 8): No
- Plasma active GLP-1 level (relative value to control group as 100), average value (Table 13, Experiment 8): 94

Compound: O=C(O)CCC1NC(=O)C(Cc2ccccc2)NC1=O (stereo not shown) [compound 53, Cyclo(Glu-Phe)]
- Significant difference (p < 0.05) vs control group, plasma active GLP-1 level (Table 10, Experiment 5): No
- Plasma active GLP-1 level (relative value to control group as 100), average value (Table 10, Experiment 5): 93

Compound: CC(C)C[C@@H]1NC(=O)[C@H](CC(C)C)NC1=O [compound 15, Cyclo(Leu-Leu)]
- Significant difference (p < 0.05) vs control group, plasma active GLP-1 level (Table 9, Experiment 4): No
- Plasma active GLP-1 level (relative value to control group as 100), average value (Table 9, Experiment 4): 95

Compound: CC[C@H](C)C1NC(=O)[C@H](CC(N)=O)NC1=O (stereo partly shown) [compound 163, cyclo-asparaginyl-isoleucine]
- Significant difference (p < 0.05) vs control group, plasma active GLP-1 level (Table 15, Experiment 10): Yes
- Plasma active GLP-1 level (relative value to control group as 100), average value (Table 15, Experiment 10): 327

Compound: CC1NC(=O)C(C(C)C)NC1=O (stereo not shown) [compound 122, Cyclo(Val-Ala)]
- Significant difference (p < 0.05) vs control group, plasma active GLP-1 level (Table 13, Experiment 8): No
- Plasma active GLP-1 level (relative value to control group as 100), average value (Table 13, Experiment 8): 94

From patent US20170143701A1, “CARBOHYDRATE METABOLISM-AMELIORATING AGENT” (SUNTORY HOLDINGS LIMITED, priority 2014, published 2017)
